Test systems include ACHN renal; HCC-2998 colon; HL-60(TB) leukemia; HT29 colon; K-562 leukemia; NCI-H460 lung; OVCAR-3 ovarian; SNB-19 CNS; UACC-257 melanoma; UO-31 renal.
Assay in all cases: NCI anticancer screen, dose series, 48 h

Each structure is given as a SMILES string. Values joined by “and” are separate entries in the source; they are usually repeats but may differ in a detail not shown here. Equal entries are not always repeated.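 96-well plates; 48 h exposure; 5 concentrations. Endpoints by linear interpolation between flanking doses. Not reached: highest tested concentration assigned. GI50 is the concentration that inhibits growth by half. TGI is the concentration that stops growth completely.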 Where only a bound is given, the exact number is not on record here.

As to `C/C(=N\NC(=S)Nc1ccccc1)c1ccccn1`, the GI50 was 0.0335 µM in the assay with ACHN renal; 0.924 µM in the assay on HCC-2998 colon; less than 0.0114 µM with HL-60(TB) leukemia; 0.0203 µM in the assay with HT29 colon; less than 0.01 µM in the assay with K-562 leukemia; 0.0692 µM in the assay with NCI-H460 lung. Also, the GI50 is less than 0.01 µM in the assay with OVCAR-3 ovarian, 1.1 µM in the assay on SNB-19 CNS, 0.032 µM in the assay on UACC-257 melanoma and 0.0565 µM in the assay with UO-31 renal. In addition, the TGI turned out to be 3.75 µM in the assay on ACHN renal; 3.12 µM with HCC-2998 colon; 0.0781 µM in the assay on HL-60(TB) leukemia; 2.54 µM with HT29 colon; 6.93 µM with K-562 leukemia; 3.74 µM in the assay with NCI-H460 lung. For the same compound, the TGI turned out to be 0.0538 µM in the assay with OVCAR-3 ovarian, 16.4 µM in the assay with SNB-19 CNS, 0.384 µM in the assay with UACC-257 melanoma and 2.75 µM in the assay on UO-31 renal.

Consider `C=C1C(=O)C23C(O)C1CCC2C12CO[C@]3(O)[C@@H](O)C1C(C)(C)CCC2O` (stereo not given in full), for which the TGI in the assay on ACHN renal was 27.2 µM; in the assay with HCC-2998 colon, 30.4 µM; with HL-60(TB) leukemia, more than 100 µM; in the assay with HT29 colon, 30.3 µM; in the assay with K-562 leukemia, more than 100 µM; in the assay with NCI-H460 lung it was 29.2 µM. Besides, the TGI in the assay with OVCAR-3 ovarian stood at 30.3 µM; in the assay with SNB-19 CNS, 28.6 µM; in the assay with UACC-257 melanoma, 23.8 µM; in the assay on UO-31 renal it was 31.1 µM.

Turning to `O=C(O)Cc1ccccc1`, the GI50 in the assay with ACHN renal, in the assay with HCC-2998 colon, in the assay with HL-60(TB) leukemia, with K-562 leukemia, with NCI-H460 lung and with SNB-19 CNS was more than 1000 µM throughout. Also, the GI50 with UACC-257 melanoma is more than 1000 µM. Also, the TGI with ACHN renal was more than 2000 µM; in the assay with HCC-2998 colon, more than 2000 µM; in the assay on HL-60(TB) leukemia it was more than 1000 µM; in the assay on HT29 colon, more than 2000 µM; in the assay with K-562 leukemia it was > 1000 µM and 1010 µM; with NCI-H460 lung, > 1000 µM and 933 µM. Moreover, the TGI with OVCAR-3 ovarian, in the assay on SNB-19 CNS, in the assay with UACC-257 melanoma and with UO-31 renal was more than 2000 µM in each case.

On to `CCCCCNC(=O)C1C(=O)N(CCCCC)C(=O)/C1=N\N` (stereo not given), for which the TGI in the assay on ACHN renal, in the assay with HCC-2998 colon, with HL-60(TB) leukemia, in the assay on HT29 colon, in the assay with K-562 leukemia and in the assay with NCI-H460 lung was more than 100 µM throughout. Moreover, the TGI in the assay with OVCAR-3 ovarian is more than 100 µM; with SNB-19 CNS, more than 100 µM; in the assay on UACC-257 melanoma, more than 100 µM; in the assay on UO-31 renal, 81.8 µM.

`CC1=C(C(=O)Nc2cc(F)c(F)cc2F)C(c2cccc([N+](=O)[O-])c2)C(C(=O)Nc2ccccc2C(F)(F)F)=C(C)N1` (stereo not given): the TGI in the assay with ACHN renal came to 66.1 µM; in the assay on HCC-2998 colon, 36.5 µM; in the assay with HL-60(TB) leukemia, 37.1 µM; in the assay on HT29 colon it was 62.8 µM; in the assay on K-562 leukemia it was 36.7 µM; in the assay on NCI-H460 lung, 43.6 µM. Besides, the TGI in the assay on OVCAR-3 ovarian is 41.9 µM; with SNB-19 CNS, more than 100 µM; with UACC-257 melanoma, 59.3 µM; in the assay on UO-31 renal it was 42 µM.

As for `NC(=NCc1ccccc1)N/N=C\c1ccnc2ccccc12`, the TGI in the assay on ACHN renal stood at 32 µM; in the assay with HCC-2998 colon it was 4.51 µM; in the assay on HL-60(TB) leukemia, 36.4 µM; in the assay on HT29 colon, 25.4 µM; in the assay on K-562 leukemia it was 24.2 µM; in the assay with NCI-H460 lung it was 31 µM. In addition, the TGI in the assay with OVCAR-3 ovarian is 27.2 µM; in the assay on SNB-19 CNS, 36.9 µM; in the assay on UACC-257 melanoma, 8.63 µM; with UO-31 renal, 22.1 µM.

Turning to `CC1(C)CC(C2CC(C)(C)CC(C)(C)[C@H]2O)[C@@H](O)C(C)(C)C1` (stereo not given in full), the TGI with ACHN renal, in the assay with HCC-2998 colon, with HL-60(TB) leukemia, in the assay on HT29 colon, in the assay on K-562 leukemia and in the assay with NCI-H460 lung was more than 100 µM throughout. Besides, the TGI with OVCAR-3 ovarian, in the assay with SNB-19 CNS, in the assay with UACC-257 melanoma and in the assay on UO-31 renal was more than 100 µM throughout.

On to `O=[N+]([O-])c1ccc([I+]c2ccccc2)cc1`, for which the GI50 is 5.15 µM in the assay on ACHN renal; 3.22 µM in the assay with HCC-2998 colon; 3.15 µM with HL-60(TB) leukemia; 2.08 µM in the assay on HT29 colon; 1.78 µM with NCI-H460 lung; 1.8 µM in the assay with OVCAR-3 ovarian. In addition, the GI50 in the assay with SNB-19 CNS was 1.63 µM; in the assay on UACC-257 melanoma, 1.6 µM. Also, the TGI in the assay with ACHN renal was > 31.6 µM and 18.5 µM; in the assay with HCC-2998 colon it was 16.4 µM and 11.3 µM; in the assay on HL-60(TB) leukemia, 27.4 µM and 9.73 µM; in the assay on HT29 colon, 8.33 µM and 5.08 µM; with K-562 leukemia, more than 53.2 µM; in the assay with NCI-H460 lung, 11.9 µM and 3.93 µM. Also, the TGI in the assay on OVCAR-3 ovarian is 12.2 µM and 3.39 µM; in the assay on SNB-19 CNS, 9.99 µM and 3.03 µM; with UACC-257 melanoma, 13.9 µM and 4.42 µM; with UO-31 renal it was 11.9 µM.

For `O=C1c2cccnc2-c2nc(-c3ccccc3)cc3c2c1nc1ccccc13`, the GI50 in the assay on ACHN renal is 1.09 µM; in the assay with HCC-2998 colon it was 4.95 µM; in the assay on HL-60(TB) leukemia, 1.12 µM; with HT29 colon, 2.59 µM; in the assay with K-562 leukemia, 0.658 µM; with NCI-H460 lung, 0.844 µM. Moreover, the GI50 in the assay with OVCAR-3 ovarian was 0.31 µM; in the assay on SNB-19 CNS, 3.71 µM; with UACC-257 melanoma, 0.835 µM; in the assay on UO-31 renal it was 3.8 µM. Also, the TGI was determined as 8 µM in the assay with ACHN renal; 18.5 µM in the assay with HCC-2998 colon; 3.01 µM in the assay on HL-60(TB) leukemia; 7.16 µM with HT29 colon; 3.91 µM with K-562 leukemia; 3.74 µM in the assay on NCI-H460 lung. In addition, the TGI with OVCAR-3 ovarian is more than 100 µM; in the assay with SNB-19 CNS, 20.1 µM; in the assay with UACC-257 melanoma it was 8.08 µM; with UO-31 renal, 11.2 µM.

With `COc1ccc(C=O)c(N(C)C(=O)C(C)(C)C)c1`, the TGI with ACHN renal, in the assay on HCC-2998 colon, in the assay on HL-60(TB) leukemia, in the assay with HT29 colon, with K-562 leukemia and in the assay on NCI-H460 lung was more than 100 µM each time. In addition, the TGI with OVCAR-3 ovarian, with SNB-19 CNS, in the assay on UACC-257 melanoma and with UO-31 renal was more than 100 µM in each case.

With `COC(=O)CC(CC(=O)C(=O)OC)C(=O)OC` (stereo not given), the TGI with ACHN renal, in the assay with HCC-2998 colon, in the assay on HL-60(TB) leukemia, in the assay with HT29 colon, in the assay with K-562 leukemia and in the assay on NCI-H460 lung was more than 100 µM throughout. Besides, the TGI in the assay with OVCAR-3 ovarian, in the assay with SNB-19 CNS, in the assay on UACC-257 melanoma and in the assay on UO-31 renal was more than 100 µM each time.

Consider `Cn1cc(-c2csc(-c3cn(C)c4ncccc34)n2)c2ccccc21`, for which the GI50 with ACHN renal is 0.899 µM; in the assay on HCC-2998 colon, 1.15 µM; in the assay with HL-60(TB) leukemia, 0.283 µM; in the assay on HT29 colon, 0.276 µM; in the assay with K-562 leukemia it was 0.103 µM; in the assay with NCI-H460 lung, 0.336 µM. The GI50 with OVCAR-3 ovarian is 0.143 µM; with SNB-19 CNS it was 0.574 µM; with UACC-257 melanoma it was 13 µM; in the assay with UO-31 renal it was 0.71 µM. The TGI in the assay on ACHN renal is 16.6 µM; with HCC-2998 colon, more than 100 µM; in the assay with HL-60(TB) leukemia, 18.8 µM; in the assay with HT29 colon it was 4.16 µM; in the assay on K-562 leukemia, 16.6 µM; with NCI-H460 lung it was 13.5 µM. Moreover, the TGI was 1.3 µM in the assay on OVCAR-3 ovarian, 27 µM with SNB-19 CNS, more than 100 µM in the assay on UACC-257 melanoma and more than 66.4 µM with UO-31 renal.

Take `CC1(C)CCC(CN2CCN(c3ccc(C(=O)NS(=O)(=O)c4ccc(NCC5CCOCC5)c([N+](=O)[O-])c4)c(Oc4cnc5[nH]ccc5c4)c3)CC2)=C(c2ccc(Cl)cc2)C1`: the GI50 in the assay with ACHN renal was 2.93 µM; with HCC-2998 colon it was 2.1 µM; in the assay on HL-60(TB) leukemia, 0.25 µM; in the assay with HT29 colon it was 2.49 µM; in the assay with K-562 leukemia, 3.5 µM; with NCI-H460 lung, 2.64 µM. Moreover, the GI50 with OVCAR-3 ovarian was 2.31 µM; in the assay with SNB-19 CNS, 3.55 µM; in the assay on UACC-257 melanoma it was 1.98 µM; in the assay on UO-31 renal, 2.57 µM. In addition, the TGI with ACHN renal worked out at 10.2 µM; with HCC-2998 colon it was 3.92 µM; with HL-60(TB) leukemia, 2.33 µM; in the assay with HT29 colon, 6.45 µM; with K-562 leukemia, 26.9 µM; with NCI-H460 lung, 8.86 µM. In addition, the TGI in the assay on OVCAR-3 ovarian is 5.44 µM; with SNB-19 CNS it was 23.8 µM; in the assay on UACC-257 melanoma, 4.94 µM; in the assay on UO-31 renal it was 8.26 µM.

On to `CCN(CC)c1ccc(/C=C/C2=[N+](C)c3ccccc3C2(C)C)cc1`, for which the GI50 in the assay with ACHN renal was 1.48 µM; in the assay with HCC-2998 colon, 0.547 µM; in the assay with HL-60(TB) leukemia, 0.0906 µM; in the assay with HT29 colon, 0.148 µM; with K-562 leukemia, 3.44 µM; in the assay with NCI-H460 lung, 0.312 µM. The GI50 in the assay with OVCAR-3 ovarian is 0.281 µM; in the assay on SNB-19 CNS, 0.326 µM; with UACC-257 melanoma, 0.375 µM; in the assay with UO-31 renal, 3.26 µM. The TGI with ACHN renal is 14.6 µM; in the assay with HCC-2998 colon, 18.6 µM; in the assay with HL-60(TB) leukemia it was more than 100 µM; with HT29 colon, more than 40.5 µM; in the assay with K-562 leukemia, more than 100 µM; in the assay on NCI-H460 lung it was 15.8 µM. Also, the TGI turned out to be 13.2 µM in the assay on OVCAR-3 ovarian, 15.4 µM in the assay on SNB-19 CNS, 14.6 µM in the assay on UACC-257 melanoma and 18.1 µM in the assay on UO-31 renal.

For the origin of these results see PubChem BioAssay (NCI).
